Assay results taken from ChEMBL document CHEMBL1152471 (2008).

What was measured:
Assay type in all cases: functional
[1] = tested on: Mycolicibacterium smegmatis; test: Antituberculosis activity against linezolid-resistant Mycobacterium smegmatis without mutation in 23S rRNA
[2] = tested on: Mycobacterium tuberculosis; test: Antituberculosis activity against Mycobacterium tuberculosis by bactec 460 TB method
[3] = tested on: Mycobacterium tuberculosis; test: Antituberculosis activity against Mycobacterium tuberculosis by bactec MGIT 960 method

Measured: MIC

CC(=O)NC[C@H]1CN(c2ccc(N3CCOCC3)c(F)c2)C(=O)O1 [LINEZOLID]
4 µg/mL: all assays above
